In US11083714B2, “Selective anti-cancer agent effective for prevention and treatment” (Molecular International Research, Inc., priority 2018, dated 2021):
“Also recorded” adds a separate entry of the source.

Columns and labels:
PANC-1 cells [1] = test: Spheroid formation (cancer stem cells); assay type: cell-based
Method: FIG. 22. PANC-1 cell suspensions were treated at concentrations of 0 μM (negative control), 2.5 μM, 5.0 μM, and 10.0 μM de-ethylflavopereirine then examined for the presence of spheroids.
FIG. 23. Primary spheroids from first round were collected and seeded for secondary spheroid formation. Following treatment with concentrations of 0 μM (negative control), 2.5 μM, 5.0 μM, and 10.0 μM de-ethylflavopereirine, suspensions were examined.
In vitro, cancer stem cells form spheroids: clusters of cancer cells surrounding a cancer stem cell. Inhibition of spheroid formation is a test for anti-cancer stem cell activity of a compound.

[2] = Alcohol-induced chronic pancreatitis model; assay type: in vivo; conditions: mice given ethanol and compound in the daily diet
Text: FIG. 29. Effects of de-ethylflavopereirine in a mice model of alcohol-induced chronic pancreatitis. Paraffin sections of the pancreas were stained with hematoxylin and eosin. […] This tissue protection was quantitated with an injury score (FIG. 29B). Ly6G was elevated four-fold in the pancreas of mice given ethanol while the number of neutrophils was not elevated in mice given ethanol and compound 13-9-1 (FIG. 29C).
Daily administration of ethanol to mice was followed by a binge of ethanol administration, a regimen relevant to human consumption. In the experimental group, de-ethylflavopereirine was included in the daily diet throughout the course of the experiment. There were two control groups: animals that were given no alcohol (negative control) and animals given alcohol without receiving the compound 13-9-1 (positive control). Following 10 days of alcohol treatment, the animals were gavaged with alcohol for 8 hours then euthanized, and their pancreatic tissues were collected. Pancreatic tissue sections were analyzed for histology and isolated RNA was used for quantitative PCR.

[3] = Toxicity in mice, intravenous administration; assay type: in vivo; conditions: 20 mg/kg and 40 mg/kg
Method: At 20 mg/kg and 40 mg/kg doses, intravenous administration of compound 13-9-1 in mice was well-tolerated. The 20 mg/kg dose provides sufficient serum concentration for the compound to exert its anti-tumor effect.
Oral administration was chosen for the mouse experiments because administration is simplified by avoiding the need for tail vein injections.

PANC-1 cells [4] = test: Tumor formation and growth after inoculation of pretreated PANC-1 cells (FIG. 26); assay type: in vivo, mice
Method: FIG. 26. Effect of de-ethylflavopereirine on pancreatic cancer formation and growth. […] In the control group (top line of left graph), 86.67% (13/15) of the untreated mice formed tumors. Compound 13-9-1 (10 μM) decreased the rate to 80% (4/5); there was no effect on the time of tumor formation (bottom line of left graph). […] In the control group (top line of left graph), 80% (12/15) of the untreated mice formed tumors. Compound 13-9-1 (10 μM) decreased the tumor formation rate to 60% (3/5); this indicated reduction in tumor formation initiated by pancreatic cancer stem cells (bottom line of left graph). […] In FIG. 26C, after 2×10^4 PANC-1 cells were inoculated, 20% of the mice formed tumors in both the control group (3/15) and the treated group (1/5) at 38 days of observation.
In vivo, cancer stem cells are the primary source of tumor formation and growth. Thus, the rates of tumor formation and growth are indicators of cancer stem cell activity. When animals are inoculated with limited numbers of cancer cells, rates of tumor formation and growth can be accurately measured. It can then be determined whether a prospective agent slows the formation and growth rates of tumors, which is an indication of whether it acts against cancer stem cells. PANC-1 cancer cells were grown in suspension and pretreated with de-ethylflavopereirine at 10 μM concentration before inoculation into mice. As a negative control, PANC-1 cancer cells were not pretreated with the compound. Following inoculation, the rates of tumor formation and growth were measured. • 1) After 10^6 PANC-1 cells were inoculated, tumors formed in 87% of the mice in the control group and 80% of the mice in the treated group. […] De-ethylflavopereirine reduced tumor formation rate to 60%, indicating inhibition of pancreatic cancer stem cells. […] De-Ethylflavopereirine Suppresses PANC-1 Tumor Formation In Vivo: Anti-Cancer Stem Cell Activity

[5] = mouse, in vivo
Method: To estimate the maximum tolerated dose of compounds 13-7-2 and 13-9-1 in mice, both compounds were dissolved in PBS and given to SCID mice by oral gavage.
Compound 13-7-2 was administered at a dose of 100 mg/kg, 150 mg/kg, or 200 mg/kg. Each dose group consisted of three mice.
Compound 13-9-1 was administered at a dose of 100 mg/kg, 150 mg/kg, or 200 mg/kg by oral gavage (three mice per dose group).
In a separate dose finding/toxicity test with compound 13-9-1, three mice received escalating doses of 50 mg/kg/day for 3 days, 100 mg/kg/day for 7 days, 200 mg/kg/day for 7 days, and 300 mg/kg/day for 3 days, given by oral gavage. Mice were monitored closely for toxic signs.

LnCap = test: Cell Proliferation (anti-cancer), LnCap; assay type: cell-based, human
Method: (§1) The primary goal of synthesizing de-ethylflavopereirine (compound 13-9-1) was to generate a different compound that still retains the anti-cancer cell activity of flavopereirine (compound 13-7-2). Comparison of the effects of the two compounds on proliferation of a variety of cancer cells confirmed that this goal was achieved. For example, the effect of de-ethylflavopereirine on two human breast cancer cell lines and two human prostate cancer cell lines were analyzed.

β-catenin = β-catenin localization in PANC-1 cells (Wnt signaling); assay type: cell-based
Text: FIG. 28. Effect of de-ethylflavopereirine on β-catenin localization in the nucleus of PANC-1 cells. […] Cytoplasmic β-catenin levels were not affected under these conditions. Vinculin provided a marker for a cytoplasmic protein that is present in very low amounts in the nucleus.
Wnt pathway activation involves translocation of β-catenin from the cytoplasm into the nucleus and subsequent changes in transcription of targeted genes. Suppression of Wnt activation occurs when the translocation of β-catenin into the nucleus is suppressed. […] So de-ethylflavopereirine inhibits the growth of pancreatic cancer stem cells in part because it specifically suppresses Wnt signaling.

[6] = tested on: two human breast cancer cell lines; test: Proliferation of breast cancer cell lines; assay type: cell-based
Method: as §1

[7] = 1×10^6 PANC-1 cells pretreated at 10 μM
[8] = 2×10^5 PANC-1 cells pretreated at 10 μM

c1ccc2c(c1)[nH]c1c2cc[n+]2ccccc12 [Compound 13-9-1, 12H-indolo[2,3-a]quinolizin-5-ium]
secondary spheroid formation (PANC-1 cells [1]; 2.5 μM): significant inhibition
primary spheroid formation (PANC-1 cells [1]; 5 μM and 10 μM): significantly inhibited primary spheroid formation
secondary spheroid formation (PANC-1 cells [1]; 5 μM and 10 μM): completely inhibited
Ly6G level / number of neutrophils in the pancreas [2]: not elevated
injury score [2]: completely prevented injury
pancreatic tissue damage (histology) [2]: prevented; also recorded: no tissue damage
Ly6G level / number of neutrophils in the pancreas ([2]; listed as de-ethylflavopereirine): completely normal Ly6G level
tolerability of intravenous administration [3]: well-tolerated
growth of tumors formed (PANC-1 cells [4]; [7]): reduced the growth of tumors
time of tumor formation (PANC-1 cells [4]; [7]): no effect
tumor formation rate (mice that formed tumors) (PANC-1 cells [4]; [7]): 80%
growth of tumors formed (PANC-1 cells [4]; 1×10^6 PANC-1 cells pretreated at 10 μM, listed as De-ethylflavopereirine): significantly inhibited the growth
growth of tumors formed (PANC-1 cells [4]; 2×10^4 PANC-1 cells pretreated at 10 μM): not significantly different
tumor formation rate (mice that formed tumors) (PANC-1 cells [4]; 2×10^4 PANC-1 cells pretreated at 10 μM, 38 days): 20%
growth of tumors formed (PANC-1 cells [4]; [8]): significantly reduced tumor growth
tumor formation rate (mice that formed tumors) (PANC-1 cells [4]; [8]): 60%
growth of tumors formed (PANC-1 cells [4]; 2×10^5 PANC-1 cells pretreated at 10 μM, listed as De-ethylflavopereirine): slowed the growth rate
tolerated dose, oral administration ([5]; SCID): ≥ 300 mg/kg
deaths ([5]; SCID, po, 200 mg/kg, 48 hr): One mouse in the 200 mg/kg group died 15 min after the administration of the compound (apparently due to trauma caused by oral gavage)
toxic signs ([5]; po, 50 mg/kg/day): No abnormality was observed
Growth Inhibition (LnCap): Yes
IC50 (LnCap; Homo sapiens, after any period of treatment, read-out: Minimum Dose (IC50) needed to decrease growth 50% or greater versus control): 5 µM
cytoplasmic β-catenin levels (β-catenin; 24 and 48 hr): not affected
β-catenin levels in the nucleus (β-catenin; 24 hr post-treatment): no effect
β-catenin levels in the nucleus (β-catenin; 48 hr post-treatment): significantly reduced
IC50 compared with flavopereirine [6]: same IC50s
